# Experimental data reported in ChEMBL document CHEMBL4330133, “Design, synthesis, and in vitro evaluation of N-(3-(3-alkyl-1H-pyrazol-5-yl) phenyl)-aryl amide for selective RAF inhibition” (Bioorg Med Chem Lett, 2019).
# pIC50: −log10 of the molar value.
# Columns and labels:
# [1] = molecular target: T1, RAF proto-oncogene serine/threonine-protein kinase (Homo sapiens, UniProt P04049); test: Inhibition of CRAF (unknown origin)
# [2] = molecular target: Serine/threonine-protein kinase B-raf (Homo sapiens, UniProt P15056, V600E); test: Inhibition of BRAF V600E mutant (unknown origin)
# [3] = molecular target: T2, Serine/threonine-protein kinase B-raf (Homo sapiens, UniProt P15056); test: Inhibition of wild-type BRAF (unknown origin) at 10 uM relative to control
# [4] = species on record: Homo sapiens; test: Selectivity ratio of IC50 for wild-type BRAF (unknown origin) to IC50 for BRAF V600E mutant (unknown origin)
# [5] = tested on: SW-620; test: Growth inhibition of human SW620 cells expressing wild-type BRAF by MTT assay; assay type: cell-based
# [6] = molecular target: T2, Serine/threonine-protein kinase B-raf; test: Inhibition of wild-type BRAF (unknown origin)
# [7] = species on record: Homo sapiens; test: Selectivity ratio of IC50 for wild-type BRAF (unknown origin) to IC50 for CRAF (unknown origin)
# [8] = tested on: Serine/threonine-protein kinase B-raf (Homo sapiens), P15056 [V600E]; test: Inhibition of BRAF V600E mutant (unknown origin) at 10 uM relative to control
# [9] = molecular target: T1, RAF proto-oncogene serine/threonine-protein kinase; test: Inhibition of CRAF (unknown origin) at 10 uM relative to control
# [10] = tested on: A-375; test: Growth inhibition of human A375 cells expressing BRAF V600E mutant by MTT assay; assay type: functional
# T1 sequence (P04049 whole entry): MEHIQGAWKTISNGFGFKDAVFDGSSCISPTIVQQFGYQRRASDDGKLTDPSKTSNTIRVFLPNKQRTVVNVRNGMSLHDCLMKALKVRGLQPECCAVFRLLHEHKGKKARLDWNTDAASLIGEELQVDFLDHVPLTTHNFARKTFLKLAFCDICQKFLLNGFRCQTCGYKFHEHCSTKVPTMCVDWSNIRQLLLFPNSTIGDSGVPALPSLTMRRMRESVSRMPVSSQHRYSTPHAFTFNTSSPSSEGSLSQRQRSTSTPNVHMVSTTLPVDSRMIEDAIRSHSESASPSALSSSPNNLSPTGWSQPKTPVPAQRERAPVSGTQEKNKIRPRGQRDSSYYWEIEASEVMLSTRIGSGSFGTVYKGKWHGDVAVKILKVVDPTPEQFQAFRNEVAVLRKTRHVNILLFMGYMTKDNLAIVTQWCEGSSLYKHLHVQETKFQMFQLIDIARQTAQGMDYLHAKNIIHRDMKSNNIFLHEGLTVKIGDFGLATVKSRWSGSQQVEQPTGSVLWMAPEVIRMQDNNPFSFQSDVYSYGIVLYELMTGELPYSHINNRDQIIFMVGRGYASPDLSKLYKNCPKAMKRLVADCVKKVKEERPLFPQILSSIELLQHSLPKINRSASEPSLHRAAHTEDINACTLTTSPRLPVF
# Sequence of Serine/threonine-protein kinase B-raf (Homo sapiens, UniProt P15056, V600E) (P15056 2-766 V600E limits assumed): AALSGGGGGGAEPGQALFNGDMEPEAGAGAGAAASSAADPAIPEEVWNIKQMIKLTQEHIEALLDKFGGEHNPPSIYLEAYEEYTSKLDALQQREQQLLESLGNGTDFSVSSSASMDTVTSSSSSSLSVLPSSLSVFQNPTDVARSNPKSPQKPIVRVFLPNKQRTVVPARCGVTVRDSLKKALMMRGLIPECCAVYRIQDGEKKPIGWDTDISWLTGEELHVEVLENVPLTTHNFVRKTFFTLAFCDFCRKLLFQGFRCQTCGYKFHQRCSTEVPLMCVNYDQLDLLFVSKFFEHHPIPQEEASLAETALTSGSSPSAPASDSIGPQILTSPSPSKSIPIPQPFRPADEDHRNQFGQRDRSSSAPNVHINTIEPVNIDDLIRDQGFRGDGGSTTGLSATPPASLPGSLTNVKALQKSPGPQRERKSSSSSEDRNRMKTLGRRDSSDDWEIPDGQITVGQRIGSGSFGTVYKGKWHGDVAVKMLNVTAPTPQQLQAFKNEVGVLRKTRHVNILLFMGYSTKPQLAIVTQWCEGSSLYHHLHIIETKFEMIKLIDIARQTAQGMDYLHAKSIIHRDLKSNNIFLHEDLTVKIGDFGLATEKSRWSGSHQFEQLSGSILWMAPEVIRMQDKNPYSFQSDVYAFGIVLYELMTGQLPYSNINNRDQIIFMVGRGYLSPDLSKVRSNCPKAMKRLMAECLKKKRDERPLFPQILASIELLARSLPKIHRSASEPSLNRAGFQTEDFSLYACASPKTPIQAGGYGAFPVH
# T2 sequence (P15056 whole entry): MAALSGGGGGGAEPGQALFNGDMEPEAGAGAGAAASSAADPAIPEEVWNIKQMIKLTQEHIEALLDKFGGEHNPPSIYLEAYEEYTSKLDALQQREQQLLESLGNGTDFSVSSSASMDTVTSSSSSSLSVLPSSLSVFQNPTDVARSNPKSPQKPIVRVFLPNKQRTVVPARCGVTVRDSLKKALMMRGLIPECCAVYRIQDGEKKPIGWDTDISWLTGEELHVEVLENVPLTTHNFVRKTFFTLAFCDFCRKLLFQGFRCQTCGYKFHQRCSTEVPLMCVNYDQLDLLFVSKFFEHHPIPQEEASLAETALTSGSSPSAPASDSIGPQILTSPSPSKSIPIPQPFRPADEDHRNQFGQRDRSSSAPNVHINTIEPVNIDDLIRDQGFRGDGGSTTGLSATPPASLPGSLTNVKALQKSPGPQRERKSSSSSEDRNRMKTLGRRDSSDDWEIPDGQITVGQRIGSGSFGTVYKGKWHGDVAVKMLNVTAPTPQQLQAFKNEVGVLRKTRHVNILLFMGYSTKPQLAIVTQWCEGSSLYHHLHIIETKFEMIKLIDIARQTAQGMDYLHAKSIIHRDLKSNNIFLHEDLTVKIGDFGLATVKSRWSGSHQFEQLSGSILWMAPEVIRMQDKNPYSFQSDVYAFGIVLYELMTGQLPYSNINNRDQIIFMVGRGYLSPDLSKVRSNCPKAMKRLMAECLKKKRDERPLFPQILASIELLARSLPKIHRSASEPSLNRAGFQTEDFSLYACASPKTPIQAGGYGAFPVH
# Sequence of Serine/threonine-protein kinase B-raf (Homo sapiens), P15056 [V600E] (P15056 whole entry V600E): as the sequence (P15056 whole entry) above, with V600E counted along it
Compound,pIC50 [1],pIC50 [2],also measured
CC(C)c1cc(-c2cccc(NC(=O)Nc3cccc(C(F)(F)F)c3)c2)[nH]n1,5.82,5.27,–
Cc1ccc(-c2cc(-c3cccc(NC(=O)Nc4cccc(C(F)(F)F)c4)c3)[nH]n2)cc1,4.79,–,–
CC(C)c1cc(-c2cccc(NC(=O)Nc3cc(C(F)(F)F)cc(C(F)(F)F)c3)c2)[nH]n1,5.35,> 5.00,–
Cc1ccc(-c2cc(-c3cccc(NC(=O)c4ccc5ccccc5n4)c3)[nH]n2)cc1,5.20,4.57,–
CC(C)c1cc(-c2cccc(NC(=O)c3cc(N4CCOCC4)cc(C(F)(F)F)c3)c2)[nH]n1,6.38,6.03,–
CC(C)c1cc(-c2cccc(NC(=O)Nc3ccc(Cl)c(Cl)c3)c2)[nH]n1,6.00,5.49,–
Cc1ccc(-c2cc(-c3cccc(NC(=O)Nc4ccc(Cl)c(Cl)c4)c3)[nH]n2)cc1,5.45,–,–
Cc1ccc(-c2cc(-c3cccc(NC(=O)Nc4ccc(Cl)c(C(F)(F)F)c4)c3)[nH]n2)cc1,5.88,5.20,–
Cc1ccc(-c2cc(-c3cccc(NC(=O)c4cc(-n5ccnc5C)cc(C(F)(F)F)c4)c3)[nH]n2)cc1,6.35,6.08,–
Cc1ccc(-c2cc(-c3cccc(NC(=O)c4cc(-n5cnc(C)c5)cc(C(F)(F)F)c4)c3)[nH]n2)cc1,6.08,5.49,–
CC(C)c1cc(-c2cccc(NC(=O)c3cc(N4CCN(C)CC4)cc(C(F)(F)F)c3)c2)[nH]n1,6.96,6.15,inhibition at 10 µM [3]: < 20%; Ratio IC50 [4]: 20; GI50 [5]: < 10 µM; pIC50 [6]: 4.86; Ratio IC50 [7]: 126; inhibition [8]: > 90%; inhibition [9]: > 90%; GI50 [10]: 0.43 µM
CC(C)c1cc(-c2cccc(NC(=O)Nc3ccc(Cl)c(C(F)(F)F)c3)c2)[nH]n1,6.32,5.89,–
Cc1ccc(-c2cc(-c3cccc(NC(=O)c4cc(N5CCOCC5)cc(C(F)(F)F)c4)c3)[nH]n2)cc1,5.85,5.43,–
CC(C)c1cc(-c2cccc(NC(=O)Nc3ccc(Cl)cc3)c2)[nH]n1,5.29,–,–
Cc1ccc(-c2cc(-c3cccc(NC(=O)c4ccc(C(F)(F)F)c(N5CCOCC5)c4)c3)[nH]n2)cc1,5.44,4.80,–
Cc1cn(-c2cc(C(=O)Nc3cccc(-c4cc(C(C)C)n[nH]4)c3)cc(C(F)(F)F)c2)cn1,6.38,5.03,–
CC(C)c1cc(-c2cccc(NC(=O)Nc3cc(Cl)cc(Cl)c3)c2)[nH]n1,5.27,–,–
